{
  "source": "patent US8287889B2",
  "about": "(Wuhan Liyuanheng Pharmaceutical Technology Ltd., priority 2002, dated 2012)",
  "key": {"Kunming mice": {"system": "Kunming mice", "conditions": "10 mice", "procedure": "The mice were provided by Medical school of Tongji University and with a batch No. 19-052.\nCommonly, the lethality of the mice was regarded as positive index. After the death mice of each group were recorded and calculated and a LD50 value was calculated according to the Bliss statistical method."}, "[1]": {"system": "intestinal cancer cell (HT-29)", "test": "In vitro inhibition of intestinal cancer cell, time course", "format": "cell-based", "procedure": "(§1) The relation between administering period and curable effect was intensely observed. That is to say, the inhibiting rate would be recorded according to different administering time of the medicine, such as 2, 3, 4 days administration. It is discovered that administered raw medicine of low concentration, such as 0.1 μg, 0.5 μg, 2 μg/ml, had weak inhibiting effects towards three different cancer cells. As the administering period is extended, the inhibiting effect would gradually be strengthened. […] The extension of administering period could not promptly increase the inhibiting effect. […] In short, for HT-29, A549, and Hep-G2, the maximum inhibiting effect occurred mostly at the fourth administering day, therefore illustrating a better slow-release effect of such medicine."}, "lung cancer cell (A549)": {"system": "lung cancer cell (A549)", "test": "In vitro inhibition of lung cancer cell, time course", "format": "cell-based", "procedure": "as §1"}, "[2]": {"system": "liver cancer cell (Hep-G2)", "test": "In vitro inhibition of liver cancer cell, time course", "format": "cell-based", "procedure": "as §1"}, "[3]": {"conditions": "administering dosage 2250, intravenous"}, "[4]": {"conditions": "administering dosage 3713, intravenous"}, "[5]": {"conditions": "administering dosage 6126, intravenous"}, "[6]": {"conditions": "administering dosage 10108, intravenous"}, "[7]": {"conditions": "administering dosage 16678, intravenous"}},
  "note": "Where two headings read alike, the source gives them in different places.",
  "data": [
    {"smiles": "C[C@H]1[C@H](C)CC[C@]2(C(=O)O)CC[C@]3(C)C(=CC[C@@H]4[C@@]5(C)CC[C@H](O)C(C)(C)[C@@H]5CC[C@]43C)[C@H]12", "note": "[Ursolic Acid for Injection, ursolic acid]", "values": [
      {"measurement": "Death number (r)", "setting": "Kunming mice; [3]", "value": 0},
      {"measurement": "Lethal rate(%)", "setting": "Kunming mice; [3]", "value": 0, "unit": "%"},
      {"measurement": "Probability unit (y)", "setting": "Kunming mice; [3]", "value": 0},
      {"measurement": "Death number (r)", "setting": "Kunming mice; [4]", "value": 1},
      {"measurement": "Lethal rate(%)", "setting": "Kunming mice; [4]", "value": 10, "unit": "%"},
      {"measurement": "Probability unit (y)", "setting": "Kunming mice; [4]", "value": 3.72},
      {"measurement": "Death number (r)", "setting": "Kunming mice; [5]", "value": 3},
      {"measurement": "Lethal rate(%)", "setting": "Kunming mice; [5]", "value": 30, "unit": "%"},
      {"measurement": "Probability unit (y)", "setting": "Kunming mice; [5]", "value": 4.48},
      {"measurement": "Death number (r)", "setting": "Kunming mice; [6]", "value": 6},
      {"measurement": "Lethal rate(%)", "setting": "Kunming mice; [6]", "value": 60, "unit": "%"},
      {"measurement": "Probability unit (y)", "setting": "Kunming mice; [6]", "value": 5.25},
      {"measurement": "Death number (r)", "setting": "Kunming mice; [7]", "value": 10},
      {"measurement": "Lethal rate(%)", "setting": "Kunming mice; [7]", "value": 100, "unit": "%"},
      {"measurement": "peak inhibiting effect", "setting": "[1]; HT-29, 10, 50 μg/ml, third day of administration", "value": 95, "unit": "%"},
      {"measurement": "inhibiting effect", "setting": "[1]; HT-29, high concentration 10, 50 μg/ml", "value": "strong"},
      {"measurement": "inhibiting effect", "setting": "[1]; HT-29, low concentration 0.1 μg, 0.5 μg, 2 μg/ml", "value": "weak"},
      {"measurement": "peak inhibiting effect", "setting": "lung cancer cell (A549); A549, 10, 50 μg/ml, third day of administration", "value": 95, "unit": "%"},
      {"measurement": "inhibiting effect", "setting": "lung cancer cell (A549); A549, high concentration 10, 50 μg/ml", "value": "strong"},
      {"measurement": "inhibiting effect", "setting": "lung cancer cell (A549); A549, low concentration 0.1 μg, 0.5 μg, 2 μg/ml", "value": "weak"},
      {"measurement": "peak inhibiting effect", "setting": "[2]; Hep-G2, 10, 50 μg/ml, third day of administration", "value": 95, "unit": "%"},
      {"measurement": "inhibiting effect", "setting": "[2]; Hep-G2, high concentration 10, 50 μg/ml", "value": "strong"},
      {"measurement": "inhibiting effect", "setting": "[2]; Hep-G2, low concentration 0.1 μg, 0.5 μg, 2 μg/ml", "value": "weak"}
    ]}
  ]
}
